How the values were obtained:
[1] = biological target: Hepatocyte growth factor receptor (Homo sapiens, UniProt P08581); test: Inhibition of MET
[2] = Antiproliferative activity against human GTL16 cells after 72 hrs by MTS assay; format: functional, cell-based; details: GTL 16, 72 h
[3] = system: NCI-N87; test: Antiproliferative activity against human N87 cells after 72 hrs by MTS assay; format: functional, cell-based; details: NCI-N87, 72 h
[4] = biological target: Cyclin-dependent kinase 2 (Homo sapiens, UniProt P24941); test: Inhibition of CDK2/cyclin E
[5] = Antitumor activity against human GTL16 cells xenografted BALB/c mouse assessed as at 12.5 mg/kg, po qd administered 14 days after tumor implantation; details: GTL 16, po, 336 h, read-out: TGI
[6] = Metabolic stability in mouse liver microsomes assessed as metabolic rate per mg of protein at 3 uM; format: ADME, Microsome
[7] = Antitumor activity against human GTL16 cells xenografted po dosed BALB/c mouse administered once daily 14 days after tumor implantation; format: functional; details: GTL 16, po, 336 h, read-out: MED
[8] = biological target: Tyrosine-protein kinase Lck (Homo sapiens, UniProt P06239)
[9] = system: Serum; test: Protein binding in human serum at 10 uM by equilibrium dialysis method; format: ADME, cell-free
[10] = Volume of distribution at steady state in BALB/c mouse at 5 mg/kg, iv; format: ADME, organism-based; design: dose 5 mg/kg, route intravenous; details: in vivo, read-out: Vdss
[11] = biological target: Protein kinase C alpha type (Homo sapiens, UniProt P17252); test: Inhibition of PKCalpha
[12] = AUC (0 to 24 hrs) in BALB/c mouse at 10 mg/kg, po; format: ADME, organism-based; design: time < 24 hr, dose 10 mg/kg, route oral; details: plasma
[13] = biological target: Insulin receptor (Homo sapiens, UniProt P06213); test: Inhibition of InsR
[14] = Antitumor activity against human GTL16 cells xenografted BALB/c mouse assessed as induction of tumor regression at 50 mg/kg, po qd administered 14 days after tumor implantation; format: functional; details: GTL 16, 336 h, read-out: TGI
[15] = AUC (0 to 24 hrs) in BALB/c mouse at 5 mg/kg, iv; format: ADME, organism-based; design: time < 24 hr, dose 5 mg/kg, route intravenous; details: plasma
[16] = Half life in BALB/c mouse at 5 mg/kg, iv; format: ADME, organism-based; design: dose 5 mg/kg, route intravenous; details: in vivo
[17] = biological target: Insulin-like growth factor 1 receptor (Homo sapiens, UniProt P08069); test: Inhibition of IGF1R
[18] = Oral bioavailability in BALB/c mouse at 10 mg/kg, po; format: ADME, organism-based; details: in vivo
[19] = Tmax in BALB/c mouse at 10 mg/kg, po; format: ADME, organism-based; design: dose 10 mg/kg, route oral; details: in vivo
[20] = Clearance in BALB/c mouse at 5 mg/kg, iv; format: ADME, organism-based; design: dose 5 mg/kg, route intravenous; details: in vivo
[21] = Mean residence time in BALB/c mouse at 10 mg/kg, po; format: ADME, organism-based; design: dose 10 mg/kg, route oral; details: in vivo
[22] = Toxicity in human GTL16 cells xenografted BALB/c mouse assessed as maximum tolerated dose at 100 mg/kg, po qd administered 14 days after tumor implantation; format: organism-based; design: dose 100 mg/kg, route oral; details: in vivo
[23] = biological target: Vascular endothelial growth factor receptor 2 (Homo sapiens, UniProt P35968); test: Inhibition of VEGFR2
[24] = Cmax in BALB/c mouse at 10 mg/kg, po; format: ADME, organism-based; design: dose 10 mg/kg, route oral; details: in vivo
[25] = system: Liver microsomes; test: Metabolic stability in human liver microsomes assessed as metabolic rate per mg of protein at 3 uM; format: ADME, Microsome
[26] = biological target: Mast/stem cell growth factor receptor Kit (Homo sapiens, UniProt P10721); test: Inhibition of c-Kit
[27] = biological target: T1, Receptor-type tyrosine-protein kinase FLT3 (Homo sapiens, UniProt P36888); test: Inhibition of Flt3
T1 sequence (P36888 whole entry): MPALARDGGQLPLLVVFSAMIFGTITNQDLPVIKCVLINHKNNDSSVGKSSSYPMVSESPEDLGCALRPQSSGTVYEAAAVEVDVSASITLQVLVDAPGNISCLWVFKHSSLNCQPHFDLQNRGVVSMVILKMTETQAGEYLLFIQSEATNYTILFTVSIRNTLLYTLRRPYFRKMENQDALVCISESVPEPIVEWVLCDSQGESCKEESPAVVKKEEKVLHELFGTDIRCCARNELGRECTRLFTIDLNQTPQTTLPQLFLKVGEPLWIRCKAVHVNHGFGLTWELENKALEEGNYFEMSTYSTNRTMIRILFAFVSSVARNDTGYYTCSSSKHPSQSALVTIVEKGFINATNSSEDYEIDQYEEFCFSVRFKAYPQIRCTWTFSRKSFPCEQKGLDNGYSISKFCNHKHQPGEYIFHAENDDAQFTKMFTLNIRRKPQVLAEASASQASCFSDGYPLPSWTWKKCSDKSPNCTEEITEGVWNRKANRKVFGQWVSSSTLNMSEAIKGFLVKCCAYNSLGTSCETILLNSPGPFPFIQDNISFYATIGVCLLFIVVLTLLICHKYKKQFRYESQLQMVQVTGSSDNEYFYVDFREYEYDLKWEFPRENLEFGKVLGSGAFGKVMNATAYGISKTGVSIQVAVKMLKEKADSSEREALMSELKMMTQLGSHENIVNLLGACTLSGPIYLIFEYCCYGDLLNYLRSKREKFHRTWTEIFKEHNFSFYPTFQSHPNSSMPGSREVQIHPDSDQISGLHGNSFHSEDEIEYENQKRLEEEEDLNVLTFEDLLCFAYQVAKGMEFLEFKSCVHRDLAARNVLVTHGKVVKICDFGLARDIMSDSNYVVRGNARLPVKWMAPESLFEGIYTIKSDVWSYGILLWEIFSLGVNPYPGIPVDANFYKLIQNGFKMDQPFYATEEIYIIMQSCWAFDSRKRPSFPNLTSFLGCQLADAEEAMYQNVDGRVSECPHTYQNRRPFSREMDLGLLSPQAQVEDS

[28] = Mean residence time in BALB/c mouse at 5 mg/kg, iv; format: ADME, organism-based; design: dose 5 mg/kg, route intravenous; details: in vivo
[29] = Antitumor activity against human GTL16 cells xenografted BALB/c mouse assessed as induction of complete tumor stasis at 25 mg/kg, po qd administered 14 days after tumor implantation; format: functional; details: GTL 16, 336 h, read-out: TGI
[30] = system: Serum; test: Protein binding in mouse serum at 10 uM by equilibrium dialysis method; format: ADME, cell-free
[31] = biological target: MAP kinase-activated protein kinase 2 (Homo sapiens, UniProt P49137); test: Inhibition of MK2
[32] = Half life in BALB/c mouse at 10 mg/kg, po; format: ADME, organism-based; design: dose 10 mg/kg, route oral; details: in vivo
[33] = Inhibition of PKA

Sequence of Hepatocyte growth factor receptor (P08581 whole entry): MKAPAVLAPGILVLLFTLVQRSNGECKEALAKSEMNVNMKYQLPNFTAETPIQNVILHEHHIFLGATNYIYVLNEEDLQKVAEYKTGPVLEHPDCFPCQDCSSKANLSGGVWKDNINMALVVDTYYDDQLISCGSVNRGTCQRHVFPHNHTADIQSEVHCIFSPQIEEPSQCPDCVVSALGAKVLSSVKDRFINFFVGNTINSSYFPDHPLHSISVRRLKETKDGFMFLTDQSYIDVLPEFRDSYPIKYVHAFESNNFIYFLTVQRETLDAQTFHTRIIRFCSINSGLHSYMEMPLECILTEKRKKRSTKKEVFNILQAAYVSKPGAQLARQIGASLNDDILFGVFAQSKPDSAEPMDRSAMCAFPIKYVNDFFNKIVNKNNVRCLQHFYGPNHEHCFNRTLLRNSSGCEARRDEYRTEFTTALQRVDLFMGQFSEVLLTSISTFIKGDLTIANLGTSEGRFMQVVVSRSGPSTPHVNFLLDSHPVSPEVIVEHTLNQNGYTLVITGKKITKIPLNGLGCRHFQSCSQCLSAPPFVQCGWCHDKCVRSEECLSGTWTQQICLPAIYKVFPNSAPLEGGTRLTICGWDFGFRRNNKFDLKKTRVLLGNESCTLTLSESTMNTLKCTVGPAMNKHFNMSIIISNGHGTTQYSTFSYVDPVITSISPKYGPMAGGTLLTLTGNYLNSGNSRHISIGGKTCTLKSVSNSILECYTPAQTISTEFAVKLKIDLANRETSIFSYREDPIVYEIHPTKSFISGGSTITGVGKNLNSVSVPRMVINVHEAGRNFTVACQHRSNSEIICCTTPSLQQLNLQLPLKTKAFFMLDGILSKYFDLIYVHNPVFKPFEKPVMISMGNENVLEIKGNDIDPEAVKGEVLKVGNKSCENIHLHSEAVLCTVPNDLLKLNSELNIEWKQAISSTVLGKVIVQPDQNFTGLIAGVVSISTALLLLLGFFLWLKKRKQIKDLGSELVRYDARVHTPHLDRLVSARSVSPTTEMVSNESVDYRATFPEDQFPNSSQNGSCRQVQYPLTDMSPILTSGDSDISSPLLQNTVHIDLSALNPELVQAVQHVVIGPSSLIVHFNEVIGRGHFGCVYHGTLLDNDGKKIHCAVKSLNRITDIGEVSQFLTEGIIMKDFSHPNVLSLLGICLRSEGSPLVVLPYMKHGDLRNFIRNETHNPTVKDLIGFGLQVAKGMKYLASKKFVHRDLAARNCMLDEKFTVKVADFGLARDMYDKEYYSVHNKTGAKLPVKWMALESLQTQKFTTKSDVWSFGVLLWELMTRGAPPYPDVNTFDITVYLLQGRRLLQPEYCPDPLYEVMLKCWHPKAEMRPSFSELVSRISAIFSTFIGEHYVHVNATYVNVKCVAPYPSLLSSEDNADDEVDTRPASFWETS
Sequence of Insulin receptor (P06213 28-758 limits assumed): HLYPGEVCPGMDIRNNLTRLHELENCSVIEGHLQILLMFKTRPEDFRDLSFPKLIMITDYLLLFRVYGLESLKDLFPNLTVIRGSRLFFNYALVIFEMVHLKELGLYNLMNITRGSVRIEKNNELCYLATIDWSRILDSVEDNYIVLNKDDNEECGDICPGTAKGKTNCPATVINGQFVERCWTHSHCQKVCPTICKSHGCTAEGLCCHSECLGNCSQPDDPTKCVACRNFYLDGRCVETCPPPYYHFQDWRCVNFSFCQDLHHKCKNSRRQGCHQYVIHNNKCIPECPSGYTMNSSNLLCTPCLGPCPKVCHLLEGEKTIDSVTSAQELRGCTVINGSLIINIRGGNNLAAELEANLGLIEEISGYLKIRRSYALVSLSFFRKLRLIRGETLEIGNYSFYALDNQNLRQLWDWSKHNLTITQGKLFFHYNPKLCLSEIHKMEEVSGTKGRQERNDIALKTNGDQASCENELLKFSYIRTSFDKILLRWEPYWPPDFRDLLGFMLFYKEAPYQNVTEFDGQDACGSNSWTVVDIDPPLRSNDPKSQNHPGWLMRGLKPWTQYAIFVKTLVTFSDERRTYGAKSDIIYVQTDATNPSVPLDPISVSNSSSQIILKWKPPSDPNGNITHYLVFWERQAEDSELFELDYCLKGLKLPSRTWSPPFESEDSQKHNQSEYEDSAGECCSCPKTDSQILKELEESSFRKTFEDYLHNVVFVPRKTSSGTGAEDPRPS
Sequence of Insulin receptor (P06213 763-1382 limits assumed): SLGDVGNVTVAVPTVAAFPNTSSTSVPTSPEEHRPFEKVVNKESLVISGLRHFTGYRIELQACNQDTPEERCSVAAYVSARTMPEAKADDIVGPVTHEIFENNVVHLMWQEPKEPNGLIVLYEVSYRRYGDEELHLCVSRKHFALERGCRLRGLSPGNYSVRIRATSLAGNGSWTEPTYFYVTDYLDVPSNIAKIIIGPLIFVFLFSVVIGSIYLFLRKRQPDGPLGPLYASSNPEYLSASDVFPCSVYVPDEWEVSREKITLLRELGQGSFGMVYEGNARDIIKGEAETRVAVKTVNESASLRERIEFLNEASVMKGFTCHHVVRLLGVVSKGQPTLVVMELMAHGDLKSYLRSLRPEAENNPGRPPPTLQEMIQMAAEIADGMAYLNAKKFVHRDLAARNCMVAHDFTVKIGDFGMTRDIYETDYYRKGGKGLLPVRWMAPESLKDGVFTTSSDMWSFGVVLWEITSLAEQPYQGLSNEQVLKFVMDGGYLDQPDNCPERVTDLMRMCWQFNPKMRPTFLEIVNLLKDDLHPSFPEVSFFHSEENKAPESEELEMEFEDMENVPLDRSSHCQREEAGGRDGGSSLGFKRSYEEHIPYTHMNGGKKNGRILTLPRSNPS
Sequence of Tyrosine-protein kinase Lck (P06239 whole entry): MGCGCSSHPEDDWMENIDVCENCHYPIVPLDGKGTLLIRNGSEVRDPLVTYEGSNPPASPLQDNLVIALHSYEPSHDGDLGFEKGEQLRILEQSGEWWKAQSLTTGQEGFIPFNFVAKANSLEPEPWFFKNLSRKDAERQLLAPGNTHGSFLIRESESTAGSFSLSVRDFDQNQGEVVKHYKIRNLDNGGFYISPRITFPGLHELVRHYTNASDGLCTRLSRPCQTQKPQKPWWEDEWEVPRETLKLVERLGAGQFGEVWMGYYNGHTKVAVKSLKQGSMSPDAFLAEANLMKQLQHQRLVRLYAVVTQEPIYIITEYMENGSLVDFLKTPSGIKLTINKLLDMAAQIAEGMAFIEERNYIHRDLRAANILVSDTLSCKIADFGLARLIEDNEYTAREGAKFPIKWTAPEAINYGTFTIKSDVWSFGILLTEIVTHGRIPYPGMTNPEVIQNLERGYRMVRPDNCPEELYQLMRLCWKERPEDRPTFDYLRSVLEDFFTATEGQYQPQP
Sequence of Mast/stem cell growth factor receptor Kit (P10721 whole entry): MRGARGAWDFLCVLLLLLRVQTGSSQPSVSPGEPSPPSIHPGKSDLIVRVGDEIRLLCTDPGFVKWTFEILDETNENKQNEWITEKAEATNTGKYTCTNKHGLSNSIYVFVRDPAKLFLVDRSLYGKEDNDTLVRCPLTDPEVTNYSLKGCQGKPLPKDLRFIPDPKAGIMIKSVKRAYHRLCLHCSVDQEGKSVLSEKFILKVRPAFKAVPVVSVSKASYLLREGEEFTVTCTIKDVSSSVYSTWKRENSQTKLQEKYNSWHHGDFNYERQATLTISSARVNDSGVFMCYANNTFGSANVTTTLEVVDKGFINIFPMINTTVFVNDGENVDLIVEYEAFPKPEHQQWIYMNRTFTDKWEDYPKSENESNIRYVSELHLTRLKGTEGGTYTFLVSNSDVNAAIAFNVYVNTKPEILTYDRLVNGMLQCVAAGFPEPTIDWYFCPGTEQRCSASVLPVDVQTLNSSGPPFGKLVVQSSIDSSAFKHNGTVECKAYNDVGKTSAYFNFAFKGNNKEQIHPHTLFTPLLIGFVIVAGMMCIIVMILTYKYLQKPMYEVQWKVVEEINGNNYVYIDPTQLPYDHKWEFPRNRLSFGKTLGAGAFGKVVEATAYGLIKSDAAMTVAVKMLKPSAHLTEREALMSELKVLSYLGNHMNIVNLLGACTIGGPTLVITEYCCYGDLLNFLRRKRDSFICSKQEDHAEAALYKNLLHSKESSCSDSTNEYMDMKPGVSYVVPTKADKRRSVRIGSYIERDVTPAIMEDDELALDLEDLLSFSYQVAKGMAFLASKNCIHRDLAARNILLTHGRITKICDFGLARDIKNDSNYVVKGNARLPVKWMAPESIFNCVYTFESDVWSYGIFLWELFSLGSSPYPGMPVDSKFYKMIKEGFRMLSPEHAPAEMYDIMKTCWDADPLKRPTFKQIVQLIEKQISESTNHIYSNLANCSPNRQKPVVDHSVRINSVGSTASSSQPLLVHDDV

O=C(Nc1ccc(Oc2ccnc3[nH]ccc23)c(F)c1)c1cocc(-c2ccc(F)cc2)c1=O
IC50 [1]: 1.4 µM
IC50 [2]: > 10 µM

O=C(Nc1ccc(Oc2ccnc3[nH]ccc23)c(F)c1)c1cccn(-c2ccccc2)c1=O
IC50 [1]: 0.0019 µM
IC50 [2]: 0.14 µM
IC50 [3]: > 5 µM

NC(=O)c1ccc(-n2cccc(C(=O)Nc3ccc(Oc4ccnc5[nH]ccc45)c(F)c3)c2=O)cc1
IC50 [1]: 1 µM
IC50 [2]: > 5 µM

CC(C)CCn1cccc(C(=O)Nc2ccc(Oc3ccnc4[nH]ccc34)c(F)c2)c1=O
IC50 [1]: 0.03 µM
IC50 [2]: 3.7 µM
IC50 [3]: > 5 µM

O=C(Nc1ccc(Oc2ccnc3[nH]ccc23)c(F)c1)c1cccn(Cc2ccc(F)cc2)c1=O
IC50 [1]: 0.0082 µM
IC50 [2]: 2.1 µM
IC50 [3]: > 5 µM

O=C(Nc1ccc(Oc2ccnc3[nH]ccc23)c(F)c1)c1cccn(-c2ccccn2)c1=O
IC50 [1]: 0.01 µM
IC50 [2]: 0.97 µM
IC50 [3]: > 5 µM

O=C(Nc1ccc(Oc2ccnc3[nH]ccc23)c(F)c1)c1cncc(-c2ccc(F)cc2)c1O
IC50 [1]: 0.0028 µM
IC50 [2]: 0.07 µM
IC50 [3]: 1.24 µM

Cn1cc(C(=O)Nc2ccc(Oc3ccnc4[nH]ccc34)c(F)c2)c(=O)c(-c2ccc(F)cc2)c1
IC50 [1]: 0.0031 µM
IC50 [2]: 0.15 µM
IC50 [3]: 2.62 µM

O=C(Nc1ccc(Oc2ccnc3[nH]ccc23)c(F)c1)c1cn(C2CC2)cc(-c2ccc(F)cc2)c1=O
IC50 [1]: 0.0034 µM
IC50 [2]: 0.06 µM
IC50 [3]: > 5 µM

O=C(Nc1ccc(Oc2ccnc3[nH]ccc23)c(F)c1)c1cccc(-c2ccccc2)[n+]1[O-]
IC50 [1]: 0.0013 µM
IC50 [2]: 0.04 µM
IC50 [3]: > 5 µM

O=C(Nc1ccc(Oc2ccnc3[nH]ccc23)c(F)c1)c1cccc(-c2ccc(F)cc2)[n+]1[O-]
IC50 [1]: 0.0018 µM
IC50 [2]: 0.04 µM
IC50 [3]: 4.9 µM

COc1ccc(-n2cc(C(=O)Nc3ccc(Oc4ccnc5[nH]ccc45)c(F)c3)c(=O)c(-c3ccc(F)cc3)c2)cc1F
IC50 [1]: 0.005 µM
IC50 [2]: 0.2 µM
IC50 [3]: > 5 µM

O=C(Nc1ccc(Oc2ccnc3[nH]ccc23)c(F)c1)c1cn(-c2ccc(Cl)c(F)c2)cc(-c2ccc(F)cc2)c1=O
IC50 [1]: 0.0023 µM
IC50 [2]: 0.13 µM
IC50 [3]: > 5 µM

CC(C)(C)n1cccc(C(=O)Nc2ccc(Oc3ccnc4[nH]ccc34)c(F)c2)c1=O
IC50 [1]: 1 µM

O=C(Nc1ccc(Oc2ccnc3[nH]ccc23)c(F)c1)c1cccn(C2CC2)c1=O
IC50 [1]: 1 µM

O=C(Nc1ccc(Oc2ccnc3[nH]ccc23)c(F)c1)c1cccc(-c2ccccc2)n1
IC50 [1]: 0.47 µM

O=C(Nc1ccc(Oc2ccnc3[nH]ccc23)c(F)c1)c1cn(CCO)cc(-c2ccc(F)cc2)c1=O
IC50 [1]: 0.0038 µM
IC50 [2]: 0.28 µM
IC50 [3]: > 5 µM

O=C(Nc1ccc(Oc2ccnc3[nH]ccc23)c(F)c1)c1cccn(-c2ccc(F)cc2)c1=O
IC50 [4]: > 1 µM
inhibition in vivo at 12.5 mg/kg [5]: 62%
Stability [6]: 0.055 nM/min/mg
minimal effective dose [7]: 12.5 mg/kg
IC50 [8]: 0.29 µM
Activity [9]: 99.9%
Vd [10]: 1.6 L/kg
IC50 [11]: > 30 µM
AUC(0-t) at 24 h [12]: 50.2 µM·h
IC50 [13]: > 5 µM
inhibition in vivo at 50 mg/kg [14]: 110%
AUC(0-t) at 24 h [15]: 19.8 µM·h
half-life [16]: 2.5 h
IC50 [17]: > 5 µM
bioavailability [18]: 100%
Tmax [19]: 0.5 h
clearance [20]: 9.2 mL/min/kg
MRT [21]: 4.5 h
MTD at 336 h [22]: 100 mg/kg
IC50 [23]: 0.027 µM
IC50 [3]: > 5 µM
Cmax [24]: 11.5 µM
Stability [25]: < 0.01 nM/min/mg
IC50 [26]: 0.61 µM
IC50 [27]: 0.004 µM
MRT [28]: 3 h
inhibition in vivo at 25 mg/kg [29]: 86%
Activity [30]: 99.4%
IC50 [31]: > 10 µM
half-life [32]: 2.2 h
IC50 [33]: > 30 µM

O=C(Nc1ccc(Oc2ccnc3[nH]ccc23)c(F)c1)c1cccn(-c2cccnc2)c1=O
IC50 [1]: 0.07 µM
IC50 [2]: 4 µM
IC50 [3]: > 5 µM

Reference: ChEMBL document CHEMBL1157356, “Discovery of pyrrolopyridine-pyridone based inhibitors of Met kinase: synthesis, X-ray crystallographic analysis, and biological activities” (J Med Chem, 2008)
